Measured values as given in article PMC3626118 (Combinatorial chemistry & high throughput screening, 2009).

Tests used:
physchem = conditions: pH 8, aqueous buffer, kinetic from dmso stock
[1] = molecular target: T1, RNA triphosphatase TbCet1 (Trypanosoma brucei brucei, UniProt Q582T2); experiment: Transcreener ADP fluorescence polarization assay, dose-response; assay type: biochemical
T1 sequence (Q582T2 1-253): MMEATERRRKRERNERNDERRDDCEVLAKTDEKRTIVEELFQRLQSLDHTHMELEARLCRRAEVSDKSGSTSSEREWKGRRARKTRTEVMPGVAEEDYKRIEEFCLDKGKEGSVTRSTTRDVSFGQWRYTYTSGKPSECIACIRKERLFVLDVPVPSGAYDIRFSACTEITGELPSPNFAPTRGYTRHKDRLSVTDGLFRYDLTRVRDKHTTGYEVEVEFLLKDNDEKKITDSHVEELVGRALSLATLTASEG

[2] = Solubility by laser nephelometry in assay conditions; conditions: for Sol. (solubility threshold): laser nephelometry, assay conditions

| IC50 [1] | Structure (SMILES) | other results |
| --- | --- | --- |
| 0.065 µM | O=c1c(-c2cc(O)c(O)c(O)c2)coc2cc(O)c(O)c(O)c12 [SKI 209392, Irigenol] | – |
| 0.21 µM | O=c1c(O)cccc2cc(O)c(O)c(O)c12 [SKI 209468, Purpurogallin] | – |
| 0.44 µM | O=c1c(O)cccc2c([C@H]3Oc4cc(O)cc(O)c4C[C@H]3O)cc(O)c(O)c12 [SKI 209509, Theaflavanin] | – |
| 3.9 µM | COc1cc(O)c2c(=O)c(O)c(-c3ccc(O)c(O)c3)oc2c1 [SKI 209674, Rhamnetin] | – |
| 0.72 µM | NC[C@H](O)c1ccc(O)c(O)c1 [SKI 210170, Norepinephrine, reference compound] | solubility (physchem): > 100 µM |
| 0.035 µM | O=c1oc2c(O)c(O)cc3c(=O)oc4c(O)c(O)cc1c4c23 [SKI 210886, Ellagic acid] | – |
| 2.1 µM | O=c1c(O)c(-c2ccc(O)c(O)c2)oc2cc(O)ccc12 [SKI 210887, Fisetin] | – |
| 0.2 µM | O=C1C=C2CC3(O)COc4c(ccc(O)c4O)C3=C2C=C1O (stereo not shown) [SKI 210893, Hematein] | – |

The remaining lines, values behind:

| Structure (SMILES) | IC50 [1] | other results |
| --- | --- | --- |
| Oc1cc2c(cc1O)C1c3ccc(O)c(O)c3OCC1(O)C2 (stereo not shown) [SKI 209325, Haematoxylin] | 1.7 µM | solubility (physchem): > 100 µM |
| O=c1c(O)cc([C@H]2Oc3cc(O)cc(O)c3C[C@H]2O)cc2c([C@H]3Oc4cc(O)cc(O)c4C[C@H]3O)cc(O)c(O)c12 [SKI 209343, Theaflavin] | 8.8 µM | – |
| O=C(O[C@@H]1Cc2c(O)cc(O)cc2O[C@@H]1c1cc(O)c(O)c(O)c1-c1c([C@H]2Oc3cc(O)cc(O)c3C[C@H]2O)cc(O)c(O)c1O)c1cc(O)c(O)c(O)c1 [SKI 209412, 2′,2′-Bisepigallocatechin monogallate] | 0.01 µM | – |
| O=C(Oc1cc(O)cc2c1C[C@@H](OC(=O)c1cc(O)c(O)c(O)c1)[C@@H](c1cc(O)c(O)c(O)c1)O2)c1cc(O)c(O)c(O)c1 [SKI 209415, Epigallocatechin-3,5-digallate] | – | Sol. (solubility threshold) [2]: > 100 µM |
| Oc1cc(O)c2c(c1)O[C@H](c1cc(O)c(O)c(O)c1)[C@H](O)C2 [SKI 209444, Epigallocatechin] | 4.4 µM | – |
| O=C(O[C@@H]1Cc2c(O)cc(O)cc2O[C@@H]1c1ccc(O)c(O)c1)c1cc(O)c(O)c(O)c1 [SKI 209457, Epicatechin monogallate] | – | Sol. (solubility threshold) [2]: > 100 µM |
| O=C(O[C@@H]1Cc2c(O)cc(O)cc2O[C@@H]1c1cc(O)c(O)c(O)c1)c1cc(O)c(O)c(O)c1 [SKI 209458, Epigallocatechin-3-monogallate] | – | Sol. (solubility threshold) [2]: > 100 µM |
| O=c1c(O)c(-c2cc(O)c(O)c(O)c2)oc2cc(O)cc(O)c12 [SKI 211290, Myricetin] | 7.2 µM | solubility ([2]; pH 8, aqueous buffer, kinetic from dmso stock): > 100 µM |
| N[C@@H](Cc1ccc(O)c(O)c1)C(=O)O [SKI 211511, Levodopa, reference compound] | 0.03 µM | solubility (physchem): > 100 µM |
| Nc1cccc2c1C(=O)c1cccc(N)c1C2=O [SKI 217754, Anthraquinone, 1,5-diamino] | – | Sol. (solubility threshold) [2]: > 100 µM |
